Measurements reported in patent US11957680B2, “Pyruvate kinase activators for use in treating blood disorders” (Agios Pharmaceuticals, Inc., priority 2017, dated 2024).

Assays:
wild type PKR [1] = biological target: T1, wild type PKR (Homo sapiens, UniProt P30613); experiment: PKR (wild type) enzyme AC50 assay, LDH/NADH-coupled, absorbance at 340 nm; format: biochemical; conditions: Table 4, AC50, enzyme assay; for EC50: read-out: PKR WT
Procedure, shortened: (§1)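 Wild-type or mutant PKR (40-400 ng/well) was preincubated with compound for 60 min at room temperature in 100 mM KCl, 50 mM Tris pH 7.5, 5 mM MgCl2, 1 mM DTT, 0.03% BSA with PEP (0.1-0.5 mM), 180 μM NADH and 0.5 units LDH. ADP (0.2-1.65 mM) started the reaction, followed at 340 nm.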

PKR K410E = PKR K410E (Homo sapiens, UniProt P30613, K410E); experiment: PKR mutant assay (K410E), AC50, LDH/NADH-coupled, absorbance at 340 nm; format: biochemical; conditions: Table 4; AC50, enzyme assay
Procedure, shortened: as §1

wild type PKR [2] = biological target: T1, wild type PKR; experiment: Cell based ATP assay in purified red blood cells (Cell-Titer-Glo); set-up: endogenous in cells; host or cells: purified red blood cells from healthy volunteers; conditions: Table 4; AC50, RBCs, overnight at 37° C., ATP levels
Procedure, shortened: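 RBCs from healthy human donors' K2EDTA blood were leukocyte-depleted by filtration and resuspended in AGAM (PBS, 1% glucose, adenine, mannitol). Cells at 1×10^7 cells/mL were incubated overnight at 37 °C with serially diluted compound at 0.1% DMSO, and ATP was read by Cell-Titer-Glo luminescence.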

PKR R510Q = PKR R510Q (Homo sapiens, UniProt P30613, R510Q); experiment: PKR mutant assay (R510Q), AC50, LDH/NADH-coupled, absorbance at 340 nm; format: biochemical; conditions: Table 4, AC50, enzyme assay; for EC50: read-out: PK R510Q
Procedure, shortened: as §1

Sequence of PKR K410E (P30613 whole entry K410E): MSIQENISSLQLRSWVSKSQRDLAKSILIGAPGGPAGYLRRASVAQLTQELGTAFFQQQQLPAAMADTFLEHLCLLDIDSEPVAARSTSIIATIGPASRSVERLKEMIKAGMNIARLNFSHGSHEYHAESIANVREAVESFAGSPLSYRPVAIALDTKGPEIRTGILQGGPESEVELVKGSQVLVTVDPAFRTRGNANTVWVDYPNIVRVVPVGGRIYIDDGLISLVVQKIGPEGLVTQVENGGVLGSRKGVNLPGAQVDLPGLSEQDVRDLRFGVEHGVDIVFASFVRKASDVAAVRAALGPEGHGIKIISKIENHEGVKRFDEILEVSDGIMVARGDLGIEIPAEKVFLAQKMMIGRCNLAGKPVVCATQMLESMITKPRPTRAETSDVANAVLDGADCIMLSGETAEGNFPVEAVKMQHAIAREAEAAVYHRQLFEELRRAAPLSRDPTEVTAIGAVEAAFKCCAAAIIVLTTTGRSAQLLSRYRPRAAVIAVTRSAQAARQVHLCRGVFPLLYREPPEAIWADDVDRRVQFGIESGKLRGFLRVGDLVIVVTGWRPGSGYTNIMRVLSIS
T1 sequence (P30613 whole entry): as the sequence (P30613 whole entry K410E) above, with E410K counted along it
Sequence of PKR R510Q (P30613 whole entry R510Q): as the sequence (P30613 whole entry K410E) above, with E410K, R510Q counted along it

Row | SMILES | EC50 (wild type PKR [1]) | EC50 (PKR K410E) | EC50 (wild type PKR [2]) | EC50 (PKR R510Q) | Cell based ATP assay (wild type PKR [2]) | PKR K410E (PKR K410E) | PK R510Q (PKR R510Q) | PKR WT (wild type PKR [1])
1 | Cn1c2nc(Cc3cc[nH]n3)sc2c2cnn(Cc3n[nH]c4ccccc34)c(=O)c21 [Compound 372] | < 300 nM | < 300 nM | ≤ 1000 nM | < 300 nM |  |  |  | 
2 | Cn1c2nc(Cc3cc[nH]n3)sc2c2cnn(Cc3n[nH]c4ncccc34)c(=O)c21 [Compound 374] | < 300 nM | < 300 nM | ≤ 1000 nM | < 300 nM |  |  |  | 
3 | Cn1c2nc(Cc3cc[nH]n3)sc2c2cnn(Cc3n[nH]c4cccnc34)c(=O)c21 [Compound 379] | < 300 nM | < 300 nM | ≤ 1000 nM | < 300 nM |  |  |  | 
4 | Cn1c2nc(Cc3cc[nH]n3)sc2c2cnn(Cc3ccc4cc[nH]c4n3)c(=O)c21 [Compound 380] | < 300 nM | < 300 nM | ≤ 1000 nM | < 300 nM |  |  |  | 
5 | Cn1c2nc(Cc3cc[nH]n3)sc2c2cnn(Cc3ccc4nc[nH]c4n3)c(=O)c21 [Compound 381] | < 300 nM | < 300 nM | ≤ 1000 nM | < 300 nM |  |  |  | 
6 | Cn1c2nc(Cc3n[nH]cc3F)sc2c2cnn(Cc3ccccc3)c(=O)c21 [Compound 382] | < 300 nM | < 300 nM | ≤ 1000 nM | < 300 nM |  |  |  | 
7 | Cn1c2nc(Cc3cc[nH]n3)sc2c2cnn(Cc3ccc4c(F)c[nH]c4n3)c(=O)c21 [Compound 383] | < 300 nM | < 300 nM | ≤ 1000 nM | < 300 nM |  |  |  | 
8 | Cn1c2nc(Cc3cc[nH]n3)sc2c2cnn(Cc3ccc4c(n3)NCC4)c(=O)c21 [Compound 384] | < 300 nM | < 300 nM | ≤ 1000 nM | < 300 nM |  |  |  | 
9 | Cn1c2nc(Cc3cc[nH]n3)sc2c2cnn(CCc3cccc(N)n3)c(=O)c21 [Compound 385] | < 300 nM | < 300 nM | ≤ 1000 nM | < 300 nM |  |  |  | 
10 | Cn1c2nc(Cc3cc[nH]n3)sc2c2cnn(Cc3ccc4oc(=O)[nH]c4n3)c(=O)c21 [Compound 386] | < 300 nM | < 300 nM | ≤ 1000 nM | < 300 nM |  |  |  | 
11 | Cn1c2nc(Cc3cc[nH]n3)sc2c2cnn(Cc3ccc4c(n3)NC(=O)C4)c(=O)c21 [Compound 387] | 301 to 800 nM | < 300 nM | > 1000 nM | < 300 nM |  |  |  | 
12 | Cn1c2nc(Cc3cc[nH]n3)sc2c2cnn(Cc3ccc4cc(Cl)[nH]c4n3)c(=O)c21 [Compound 388] | < 300 nM | < 300 nM | ≤ 1000 nM | < 300 nM |  |  |  | 
13 | Cn1cc(Cc2nc3c(s2)c2cnn(Cc4cccc(C(N)=O)c4)c(=O)c2n3C)cn1 [Compound 389] | > 800 nM | > 800 nM | > 1000 nM | 301 to 800 nM |  |  |  | 
14 | Cn1c2nc(Cn3ccnc3)sc2c2cnn(Cc3cccc(C(N)=O)c3)c(=O)c21 [Compound 390] | > 800 nM | > 800 nM |  | > 800 nM | No Fit |  |  | 
15 | Cn1c2nc(Cc3cc[nH]n3)sc2c2cnn(Cc3ccc4cc(F)[nH]c4n3)c(=O)c21 [Compound 391] | < 300 nM | < 300 nM | ≤ 1000 nM | < 300 nM |  |  |  | 
16 | Cn1ccc(CCn2ncc3c4sc(Cc5cc[nH]n5)nc4n(C)c3c2=O)n1 [Compound 392] | < 300 nM | < 300 nM | ≤ 1000 nM | < 300 nM |  |  |  | 
17 | Cn1ccc(Cn2ncc3c4sc(CCc5cc[nH]n5)nc4n(C)c3c2=O)n1 [Compound 393] | < 300 nM | < 300 nM | ≤ 1000 nM | < 300 nM |  |  |  | 
18 | Cn1c2nc(CCc3cc[nH]n3)sc2c2cnn(Cc3cccc(N)n3)c(=O)c21 [Compound 394] | < 300 nM | < 300 nM | ≤ 1000 nM | < 300 nM |  |  |  | 

Row | SMILES | EC50 (wild type PKR [1]) | EC50 (PKR K410E) | EC50 (wild type PKR [2]) | EC50 (PKR R510Q) | Cell based ATP assay (wild type PKR [2]) | PKR K410E (PKR K410E) | PK R510Q (PKR R510Q) | PKR WT (wild type PKR [1])
19 | Cc1nc2c(s1)c1cnn(Cc3cccc(C(N)=O)c3)c(=O)c1n2C [Compound 395] | > 800 nM | 301 to 800 nM | > 1000 nM | > 800 nM |  |  |  | 
20 | Cn1c2nc(Oc3ccn[nH]3)sc2c2cnn(Cc3cccc(N)n3)c(=O)c21 [Compound 396] | < 300 nM | < 300 nM | ≤ 1000 nM | < 300 nM |  |  |  | 
21 | Cn1c2nc(Cc3cc[nH]n3)sc2c2cnn(CC3CCCCC3)c(=O)c21 [Compound 397] | > 800 nM | > 800 nM |  | > 800 nM | No Fit |  |  | 
22 | C=CCn1ncc2c3sc(Cc4ccccn4)nc3n(C)c2c1=O [Compound 398] | > 800 nM | > 800 nM |  | > 800 nM | No Fit |  |  | 
23 | Cn1c2nc(Cc3cc[nH]n3)sc2c2cnn(CCc3cccnc3)c(=O)c21 [Compound 399] | > 800 nM | > 800 nM |  | > 800 nM | No Fit |  |  | 
24 | Cn1ccc(CCn2ncc3c4sc(Cc5cccnc5)nc4n(C)c3c2=O)n1 [Compound 400] | > 800 nM | > 800 nM | > 1000 nM | > 800 nM |  |  |  | 
25 | Cn1c2nc(Cc3cc[nH]n3)sc2c2cnn(CCc3cscn3)c(=O)c21 [Compound 401] | < 300 nM | < 300 nM | ≤ 1000 nM | < 300 nM |  |  |  | 
26 | CCn1c2nc(Cc3cc[nH]n3)sc2c2cnn(Cc3ccccc3)c(=O)c21 [Compound 402] | > 800 nM | > 800 nM |  | > 800 nM | No Fit |  |  | 
27 | Cn1c2nc(Cc3ccccn3)sc2c2cnn(CC3CCOCC3)c(=O)c21 [Compound 403] | > 800 nM | > 800 nM |  | > 800 nM | No Fit |  |  | 
28 | C#CCn1ncc2c3sc(Cc4ccccn4)nc3n(C)c2c1=O [Compound 404] | < 300 nM | < 300 nM | ≤ 1000 nM | < 300 nM |  |  |  | 
29 | O=c1c2c(cnn1Cc1ccccc1)c1sc(Cc3ccccn3)nc1n2-c1ccccc1 [Compound 405] | > 800 nM |  |  |  | No Fit | No Fit | No Fit | 
30 | Cn1ccc(Cn2ncc3c4sc(CCc5cccnc5)nc4n(C)c3c2=O)n1 [Compound 406] | > 800 nM | > 800 nM |  | > 800 nM | No Fit |  |  | 
31 | O=c1c2c(cnn1Cc1ccccc1)c1sc(Cc3cc[nH]n3)nc1n2Cc1ccccc1 [Compound 407] |  | > 800 nM |  | < 300 nM | No Fit |  |  | No Fit
32 | O=c1c2c(cnn1Cc1ccccc1)c1sc(Cc3cc[nH]n3)nc1n2C1CC1 [Compound 408] | > 800 nM | > 800 nM | > 1000 nM | 301 to 800 nM |  |  |  | 
33 | CSc1nc2c(s1)c1cnn(Cc3ccccc3)c(=O)c1n2-c1nccs1 [Compound 409] | > 800 nM |  |  |  | No Fit | No Fit | No Fit | 
34 | CS(=O)(=O)c1nc2c(s1)c1cnn(Cc3ccccc3)c(=O)c1n2-c1nccs1 [Compound 410] |  | > 800 nM | > 1000 nM |  |  |  | No Fit | No Fit
35 | O=c1c2c(cnn1Cc1ccccc1)c1sc(Cc3ccccn3)nc1n2-c1nccs1 [Compound 411] | > 800 nM | > 800 nM |  | > 800 nM | No Fit |  |  | 
